Measurements published in US11046722B2, “Sulphated disaccharides for the treatment of neuropathic pain” (BIOIBERICA, S.A.U., priority 2017, dated 2021).

Tests used:
[1] = tested on: mechanical allodynia induced in mice by chronic ligation of the sciatic nerve; assay: Mechanical allodynia produced by chronic ligation of the sciatic nerve (von Frey, 50% pain threshold); type: in vivo; conditions: 7 days after surgery, 45 minutes before measurement
Source text: In Example 2, an experimental trial on mechanical allodynia induced in mice by chronic ligation of the sciatic nerve is described, according to the model described in the article by Decosterd et al., Spared nerve injury: an animal model of persistent peripheral neuropathic pain, Pain, 2000, 149-158. This model is based on causing mechanical allodynia in mice by means of ligation of two of the three branches of the sciatic nerve (tibial and peroneal), leaving the sural branch intact. The allodynia induced in this manner is quantified by the reduction observed in the threshold force that is necessary to apply in order to produce animal's paw withdrawal in those subjected to the ligation. As described in such example, it is observed that the administration of different doses of compound Ic is effective in reversing the allodynia induced in this model (FIGS. 1 and 2).
For this trial, groups of 6 to 7 mice were used for each group. Mechanical allodynia was induced in the animals (except for the control group) by chronic ligation of the sciatic nerve, and the allodynia induced in this manner was registered 7 days after performing the surgery.
Compound Ic was administered at different doses (3, 30 and 60 mg/Kg) as well as only saline solution as a control, and the positive control gabapentin (40 mg/Kg). The products were administered by stomach tube 45 minutes before performing the allodynia measurement, which was quantified using von Frey filaments, according to the force threshold necessary to cause paw withdrawal of the animal.
The results are summarized in FIG. 2, where the Y-axis represents half of the threshold force that is necessary to apply in order to cause paw withdrawal (50% pain threshold, in grams, g) and the X-axis indicates the different groups and treatments carried out. […]
An analogous test was carried out in which several doses of compound Ic (30, 60 and 120 mg/Kg) and gabapentin (40 mg/Kg) were administered, and the 50% pain threshold was measured at different times after the administration in order to evaluate the kinetic of the pharmacological effect and the total duration of the anti-allodynic effect. […]

[2] = tested on: mechanical allodynia due to diabetes induced by injecting streptozotocin; assay: Diabetic allodynia induced by streptozotocin injection (von Frey, 50% pain threshold); type: in vivo, mice; conditions: streptozotocin 60 mg/Kg i.p. for five days, day 25, 45 minutes after administration
Source text: In Example 5 an experimental trial is described of mechanical allodynia in diabetic mice induced by intraperitoneal streptozotocin injection, based on the model described in the article by Courteix et al., Streptozotocin-induced diabetic rats: behavioural evidence for a model of chronic pain, Pain, 1993, 81-88. This model is based on causing a mechanical allodynia in mice by inducing diabetes by means of intraperitoneal streptozotocin injection. It is observed that the administration of different doses of compound Ic is effective in reversing the allodynia induced by diabetes, as quantified by the statistically significant increase observed in the treated animals, of the threshold force that is necessary to apply in order to produce paw withdrawal in the animals (FIG. 7). […] For the evaluation of the effect of the Ic compound on the allodynia induced in this manner by diabetes, five groups of animals were used with at least 7 animals in each group, and the allodynia was quantified using von Frey filaments, according to the force threshold necessary to cause the animal's paw's withdrawal. Compound Ic was administered orally to the animals by gavage, in a single administration and allodynia was measured in each animal immediately before the administration and 45 minutes after the administration. […]

CO[C@H]1O[C@H](COS(=O)(=O)[O-])[C@@H](OS(=O)(=O)[O-])[C@H](O[C@@H]2O[C@H](C(=O)[O-])[C@@H](O)[C@H](O)[C@H]2O)[C@H]1NC(C)=O.[Na+].[Na+].[Na+] [Compound Ic, methyl 2-acetamido-2-desoxi-3-O-(β-D-glucopyranosyluronic acid)-4,6-di-O-sulfo-α-D-glucopyranoside trisodium salt]
anti-allodynic effect ([1]; 3 mg/Kg by stomach tube): notable
anti-allodynic effect ([1]; 30 mg/Kg by stomach tube): notable
analgesic effect ([1]; 60 mg/Kg by stomach tube): achieved an analgesic effect
reversal of the allodynia ([1]; 60 mg/Kg by stomach tube): total reversal of the allodynia
reversal of the allodynia induced by diabetes ([2]; 10 mg/kg single oral dose by gavage): effective at reversing the allodynia
reversal of the allodynia induced by diabetes ([2]; 30 mg/kg single oral dose by gavage, differences statistically significant): effective at reversing the allodynia
